Results published in patent US6013648A, “CB2 Receptor agonist compounds” (Sanofi, priority 1995, dated 2000).
pIC50, pKi: −log10 of the molar value.

Experiments:
human B cells = assay: DNA synthesis rate (thymidine absorption) of human B cells co-stimulated with anti-Ig antibodies; format: cell-based; settings: for increase in the thymidine absorption (DNA synthesis rate): nanomolar concentrations, human B cells co-stimulated with anti-Ig antibodies
Excerpt: It has been shown that, at nanomolar concentrations, compounds according to the invention, such as 3-(morpholin-4-ylmethyl)-5-methyl-6-(naphth-1-ylcarbonyl)-2,3-dihydropyrrolo[1,2,3-de]-1,4-benzoxazine methanesulfonate and 1-(2-(morpholin-4-yl)ethyl)-2-methyl-3-(naphth-1-ylcarbonyl)-7-methoxyindole, are capable of substantially increasing the DNA synthesis rate of human B cells co-stimulated with anti-Ig antibodies (increase of about 40% in the thymidine absorption).

[1] = target: T1, central human receptors (CB1) (Homo sapiens, UniProt P21554); assay: affinity binding test, membranes from cell lines expressing CB1
T1 construct: expressed in transfected cells; host or cells: Chinese hamster ovary (CHO) cells
T1 sequence (P21554 whole entry): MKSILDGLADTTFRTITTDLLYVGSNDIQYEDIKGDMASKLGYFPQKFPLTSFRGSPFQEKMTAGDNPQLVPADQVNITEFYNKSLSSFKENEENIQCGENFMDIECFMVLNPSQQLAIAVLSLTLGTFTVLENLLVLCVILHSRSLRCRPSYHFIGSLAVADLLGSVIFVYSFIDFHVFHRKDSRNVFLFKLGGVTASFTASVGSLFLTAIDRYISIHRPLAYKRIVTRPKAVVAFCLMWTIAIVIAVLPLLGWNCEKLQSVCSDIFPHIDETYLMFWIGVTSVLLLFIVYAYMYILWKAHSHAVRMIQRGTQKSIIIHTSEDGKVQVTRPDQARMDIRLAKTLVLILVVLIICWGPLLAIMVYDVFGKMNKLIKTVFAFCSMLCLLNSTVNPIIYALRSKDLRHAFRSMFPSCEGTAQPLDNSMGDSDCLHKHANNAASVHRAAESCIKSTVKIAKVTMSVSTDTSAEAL
Experimental: (§1) Affinity binding tests were carried out under the experimental conditions described by Devane et al. (Molecular Pharmacology (1988) 34, 605-613) with membranes derived from cell lines in which the CB1 and CB2 receptors were expressed (Munro et al., Nature (1993) 365, 561-565).

[2] = target: T2, peripheral human cannabinoid receptors (CB2) (Homo sapiens, UniProt P34972); assay: affinity binding test, membranes from cell lines expressing CB2; settings: in vitro binding; read-out: affinity for the CB2 receptor
T2 construct: expressed in transfected cells; host or cells: cell line expressing CB2 (probably CHO; the print may tie CHO to CB1 only)
T2 sequence (P34972 whole entry): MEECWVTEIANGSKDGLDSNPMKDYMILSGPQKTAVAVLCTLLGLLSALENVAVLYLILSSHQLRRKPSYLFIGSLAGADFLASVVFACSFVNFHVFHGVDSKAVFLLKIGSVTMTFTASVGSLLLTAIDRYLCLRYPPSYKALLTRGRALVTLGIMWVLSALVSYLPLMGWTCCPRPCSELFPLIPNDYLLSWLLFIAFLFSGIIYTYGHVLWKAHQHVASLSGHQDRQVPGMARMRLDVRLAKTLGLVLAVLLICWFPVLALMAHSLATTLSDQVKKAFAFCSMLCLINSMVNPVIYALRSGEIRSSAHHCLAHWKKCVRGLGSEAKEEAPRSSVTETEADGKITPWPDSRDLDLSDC
Experimental: as §1

[3] = target: T3, human CB2 cannabinoid receptors (Homo sapiens, UniProt P34972); assay: forskolin-stimulated cAMP production / adenylate cyclase inhibition, CB2; format: cell-based
T3 construct: expressed in transfected cells; host or cells: probably CHO cells (the print may tie CHO to CB1 only)
T3 sequence (P34972 whole entry): as above
Experimental: Furthermore, the compounds according to the invention behave in vitro as specific agonists for the human CB2 cannabinoid receptors relative to the CB1 receptors expressed in CHO cells. In fact, by binding specifically to the CB2 receptors, they reduce forskolin-stimulated cAMP production by inhibiting the adenylate cyclase. The tests were carried out under the experimental conditions described by Matsuda et al. (Nature, 1990, 346, 561-564).
By way of example, the following adenylate cyclase 50% inhibitory concentrations, IC50, were calculated for 1-(2-(morpholin-4-yl)ethyl)-2-methyl-3-(4-bromonaphth-1-ylcarbonyl)-7-methoxyindole: […]

[4] = target: T4, CB1 receptors expressed in CHO cells (Homo sapiens, UniProt P21554); assay: forskolin-stimulated cAMP production / adenylate cyclase inhibition, CB1; format: cell-based
T4 construct: expressed in transfected cells; host or cells: CHO cells
T4 sequence (P21554 whole entry): as the sequence (P21554 whole entry) above
Experimental: The tests were carried out under the experimental conditions described by Matsuda et al. (Nature, 1990, 346, 561-564).

`CS(=O)(=O)O.Cc1c(C(=O)c2cccc3ccccc23)c2cccc3c2n1C(CN1CCOCC1)CO3` (single isomer, unassigned) [3-(morpholin-4-ylmethyl)-5-methyl-6-(naphth-1-ylcarbonyl)-2,3-dihydropyrrolo[1,2,3-de]-1,4-benzoxazine methanesulfonate] was tested, and the “increase in the thymidine absorption (DNA synthesis rate)” value (human B cells) was “about 40%”.

In the case of `COc1cccc2c(C(=O)c3ccc(Br)c4ccccc34)c(C)n(CCN3CCOCC3)c12` [Compound 22, 1-(2-(Morpholin-4-yl)ethyl)-2-methyl-3-(4-bromonaphth-1-ylcarbonyl)-7-methoxyindole], the pKi [1] was less than 6.00, the pKi [2] was 8.74 and the pIC50 [3] was 9.00. It also gave a pIC50 [4] of 6.00.

`COc1cccc2c(C(=O)c3cccc4ccccc34)c(C)n(CCN3CCOCC3)c12` [Compound 6, 1-(2-(morpholin-4-yl)ethyl)-2-methyl-3-(naphth-1-ylcarbonyl)-7-methoxyindole] was tested, and the “increase in the thymidine absorption (DNA synthesis rate)” value (human B cells) was “about 40%”.

With `Cc1c(C(=O)NN2CCCCC2)nn(-c2ccc(Cl)cc2Cl)c1-c1ccc(Cl)cc1` [SR 141716A, reference compound] the blocking effect (human B cells; wide concentration range, with CP 55940 (or Δ^9 -THC or WIN 55212-2) at 10^-9 M) was “no blocking effect was observed”.
